Earlier results, collected in patent US6355270B1, “Particles for oral delivery of peptides and proteins” (The Regents of the University of California, priority 1999, dated 2002).
Where two headings read alike, the source gives them in different places.

Key:
[1] = system: intestinal tight junctions; conditions: rabbit intestine, in vitro, reversible
[2] = system: intestinal tight junctions; conditions: in vivo

In the case of Zonula occludens toxin [Zot], the survival time (diabetic rats; diabetic animals chronically treated with oral insulin+Zot, versus parenterally treated rats) is given as “comparable to that observed in parenterally treated rats”, the “lowering of serum glucose concentrations” value (diabetic rats; diabetic rats, oral insulin co-administered with Zot, versus parenteral injection of insulin) is given as “comparable to those obtained after parenteral injection of the hormone” and the “increase of intestinal permeability to insulin” value ([1]; P=0.034) is given as 72%. The “increase of intestinal permeability to immunoglobulins” value ([1]; P=0.04) was 52%, the “increase of insulin absorption” value ([2]; both rabbit jejunum and ileum) was 10 fold and the “change of insulin absorption” value ([2]; rabbit colon) was “no substantial changes”. For the same substance, the “increase of IgG absorption” value ([2]; rabbit ileum) was “six-fold” and the “increase of IgG absorption” value ([2]; rabbit jejunum) was “twofold”.
